Assay results as given in PubChem BioAssay (NCI).
Several values for one entry are separate records, joined by “and”; a condition that tells them apart may be missing. Equal entries are not always repeated.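 Five compound concentrations were applied to cells in 96-well plates for 48 hours; endpoints were derived by simple linear interpolation of the resulting dose-response curve. The concentration for 50% growth inhibition is given as GI50. TGI denotes the concentration required for complete inhibition of growth.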

Experiments:
Test in all cases: inhibition of tumour cell growth, NCI panel, 48 h
UACC-257 melanoma = tested on: UACC-257 melanoma
RXF 393 renal = tested on: RXF 393 renal
NCI/ADR-RES ovarian = tested on: NCI/ADR-RES ovarian
HOP-62 NSCLC = tested on: HOP-62 NSCLC
SF-539 CNS = tested on: SF-539 CNS
UO-31 renal = tested on: UO-31 renal
LOX IMVI melanoma = tested on: LOX IMVI melanoma
MDA-MB-231 breast = tested on: MDA-MB-231 breast
TK-10 renal = tested on: TK-10 renal
MDA-MB-435 = tested on: MDA-MB-435

Row | Structure (SMILES) | TGI (UACC-257 melanoma) | TGI (RXF 393 renal) | TGI (NCI/ADR-RES ovarian) | TGI (HOP-62 NSCLC) | TGI (SF-539 CNS) | TGI (UO-31 renal) | TGI (LOX IMVI melanoma) | TGI (MDA-MB-231 breast) | TGI (TK-10 renal) | TGI (MDA-MB-435) | GI50 (UACC-257 melanoma) | GI50 (RXF 393 renal) | GI50 (MDA-MB-231 breast) | GI50 (TK-10 renal) | GI50 (HOP-62 NSCLC) | GI50 (MDA-MB-435) | GI50 (SF-539 CNS) | GI50 (LOX IMVI melanoma) | GI50 (NCI/ADR-RES ovarian) | GI50 (UO-31 renal)
1 | CCCCCCCC/C=C\CCCCCCCCCCCC(=O)O | > 125 µM | 18.4 µM | > 125 µM | 63.6 µM | 40.4 µM | > 125 µM | 70.8 µM | – | – | – | – | – | – | – | – | – | – | – | – | –
2 | COc1cccc(Nc2nc(-c3cccs3)nc3cc(OC)c(OC)cc23)c1 | > 100 µM | – | 63.8 µM | 62.7 µM | 45.7 µM | > 100 µM | – | 53.8 µM | > 100 µM | 96.4 µM | – | – | – | – | – | – | – | – | – | –
3 | O=C(OCc1ccccc1)N1CCNCCN(C(=O)OCc2ccccc2)CCNCC1 | 46.3 µM | > 100 µM | > 100 µM | 33.4 µM | 29.2 µM | 38.5 µM | 27.5 µM | – | > 100 µM | 64.6 µM | – | – | – | – | – | – | – | – | – | –
4 | Nc1nc(SCCC/C=C/I)nc2c1ncn2C1OC(COP(=O)(O)O)C(O)C1O (configuration not stated) | > 100 µM | > 100 µM | – | > 100 µM | > 100 µM | – | > 100 µM | – | > 100 µM | – | – | – | – | – | – | – | – | – | – | –
5 | O=C1C=C[C@@H](COC2OC(CO)C(O)C(O)C2O)O1 (some centres not stated) | 22.8 µM and 27.7 µM | 8.82 µM | 28 µM and 34.8 µM | > 100 µM | 17.6 µM and 18.4 µM | 85 µM | 15.8 µM and 16.4 µM | – | – | – | 10.2 µM | 2.72 µM | – | – | – | – | – | – | – | –
6 | CCOC(=O)Nc1sc2c(c1C#N)CCCC2 | > 100 µM | > 100 µM | – | > 100 µM | – | > 100 µM | > 100 µM | > 100 µM | > 100 µM | > 100 µM | – | – | – | – | – | – | – | – | – | –
7 | Nc1c(-c2ccc(Cl)c(Cl)c2)c2ccc([N+](=O)[O-])cc2c(=O)n1-c1nc2ccccc2s1 | > 100 µM | 16.8 µM | 6.8 µM | > 38.6 µM | 16.3 µM | 18.1 µM | 27.3 µM | – | 30.5 µM | > 100 µM | – | – | – | – | – | – | – | – | – | –
8 | CC1=Nc2ccccc2OC(C)=C1N=Nc1ccc2nc(C)[nH]c2c1 | > 100 µM | > 100 µM | > 100 µM | > 100 µM | > 100 µM | – | > 100 µM | > 100 µM | > 100 µM | > 100 µM | – | – | – | – | – | – | – | – | – | –
9 | c1ccc2c3[nH]c(c2c1)=Nc1ccc(cc1)-c1nc2cc(ccc2o1)N=c1[nH]c(c2ccccc12)=Nc1ccc2nc(oc2c1)-c1ccc(cc1)N=3 | > 100 µM | > 100 µM | > 100 µM | > 100 µM | – | > 100 µM | > 100 µM | – | – | > 100 µM | – | – | – | – | – | – | – | – | – | –
10 | O=c1[nH]c(=S)[nH]c2c1C(c1ccc([N+](=O)[O-])cc1)c1c([nH]c(=S)[nH]c1=O)O2 | > 100 µM | > 100 µM | > 100 µM | > 100 µM | – | > 100 µM | > 100 µM | > 100 µM | > 100 µM | > 100 µM | – | – | – | – | – | – | – | – | – | –
11 | Cc1ccc(NC(=O)CC2Sc3ccccc3NC2=O)cc1C (configuration not stated) | > 100 µM | > 100 µM | – | > 100 µM | > 100 µM | > 100 µM | > 100 µM | – | > 100 µM | – | – | – | – | – | – | – | – | – | – | –
12 | COc1ccc2cc1Oc1ccc(cc1)C[C@H]1c3cc(c(OC)cc3CCN1C)Oc1c(O)c(OC)cc3c1[C@H](C2)N(C)CC3 | 30.1 µM | 45 µM | 77.1 µM | 65.7 µM | 41.6 µM | 58.8 µM | 26.7 µM | – | – | – | – | – | – | – | – | – | – | – | – | –
13 | O=C1c2cc3c(cc2-c2c1c1ccc(F)cc1c(=O)n2C[C@H](O)[C@@H](O)[C@H](O)CO)OCO3 | – | 0.432 µM | – | 0.27 µM | 0.138 µM | – | 0.137 µM | 0.984 µM | 0.858 µM | 0.279 µM | – | 0.162 µM | 0.325 µM | 0.262 µM | 0.0324 µM | 0.112 µM | 0.0289 µM | 0.0299 µM | – | –
14 | NC(N)=Nc1ccc(CC(N)NCC(=O)O)cc1 (configuration not stated) | > 25 µM | > 25 µM | > 25 µM | > 25 µM | – | > 25 µM | > 25 µM | > 25 µM | > 25 µM | > 25 µM | – | – | – | – | – | – | – | – | – | –
15 | COc1ccc(N=NC(=Nc2ccccc2)c2ccc(N(CCC#N)CCC#N)cc2)cc1 | 56.8 µM | > 100 µM | > 100 µM | > 100 µM | > 100 µM | > 100 µM | – | 59.7 µM | > 100 µM | > 100 µM | – | – | – | – | – | – | – | – | – | –
16 | COc1ccc(-n2c(C)nc3ccc(NC(=S)Nc4ccccc4)cc3c2=O)cc1 | > 100 µM | > 100 µM | > 100 µM | > 100 µM | – | > 100 µM | > 100 µM | > 100 µM | > 100 µM | > 100 µM | – | – | – | – | – | – | – | – | – | –
17 | O=[N+]([O-])c1ccc2[nH]nc(OCc3ccccc3Cl)c2c1 | > 100 µM | 48.2 µM | > 100 µM | > 100 µM | 50.9 µM | – | > 100 µM | > 100 µM | 61.3 µM | > 100 µM | – | – | – | – | – | – | – | – | – | –
18 | Oc1ccc2c(c1)c1c(n2CCN2CCOCC2)-c2ccccc2CC1 | > 100 µM | 75.7 µM | 74.2 µM | 59.2 µM | 44.9 µM | > 100 µM | 57.8 µM | 80 µM | 77.9 µM | – | – | – | – | – | – | – | – | – | – | –
19 | O=C(NCc1ccccc1)c1n[nH][nH]c1=O | > 100 µM | > 100 µM | > 100 µM | > 100 µM | – | > 100 µM | – | > 100 µM | > 100 µM | > 100 µM | – | – | – | – | – | – | – | – | – | –
20 | N=c1nnc2ccc(Cl)cc2n1O | > 100 µM | 95.2 µM | > 100 µM | > 100 µM | – | > 100 µM | > 100 µM | > 100 µM | > 100 µM | > 100 µM | – | – | – | – | – | – | – | – | – | –
21 | C=CC1(CC/C(=C\[N+](=O)[O-])c2ccc(OC)c(OC)c2)OCC(C)(C)CO1 | 26.8 µM | 36.3 µM | 35.5 µM | 60.7 µM | – | 31.6 µM | 55.8 µM | 75.8 µM | 34.6 µM | 56.3 µM | – | – | – | – | – | – | – | – | – | –
22 | CC1(C)O[C@H]2OC(CO[Si](C)(C)C(C)(C)C)C(N=[N+]=[N-])[C@H]2O1 (some centres not stated) | 35.5 µM | 32.6 µM | 37.7 µM | 34.1 µM | 36 µM | 32.3 µM | 35.9 µM | – | 36.7 µM | 66.4 µM | – | – | – | – | – | – | – | – | – | –
23 | Nc1c(S(=O)(=O)O)cc2cc(S(=O)(=O)O)ccc2c1N=Nc1ccc(-c2ccc(N=Nc3c(N)c(S(=O)(=O)O)cc4cc(S(=O)(=O)O)ccc34)c(S(=O)(=O)O)c2)cc1 | > 100 µM | > 100 µM | > 100 µM | > 100 µM | > 100 µM | > 100 µM | > 100 µM | – | – | – | – | – | – | – | – | – | – | – | – | –
24 | COc1ccc2[nH]cc(/C=C(/C)c3ccncc3)c2c1 | 32.8 µM and 26.4 µM | 10.3 µM | – | 53.8 µM | 19.9 µM and > 100 µM | 28.4 µM and 96.4 µM | 28.8 µM and 18.9 µM | – | – | – | 8.36 µM | 2.74 µM | – | – | – | – | 4.46 µM | – | 2.11 µM | 3.85 µM
